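Exposure lasted 48 hours, with cells grown in 96-well plates and compounds tested at five concentrations. At the GI50, growth is halved.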 The source made the active and inactive calls. Cut-off read from the data, not from the text of the source: active = GI50 up to about 1.1 µM and inactive = higher.
Experiments:
Experiment in all cases: NCI anticancer screen, dose series, 48 h
UACC-257 = system: UACC-257
NCI-H460 = system: NCI-H460
SK-MEL-2 = system: SK-MEL-2
SR = system: SR
OVCAR-8 = system: OVCAR-8
MDA-MB-435 = system: MDA-MB-435
MDA-N = system: MDA-N
M14 = system: M14
CCRF-CEM = system: CCRF-CEM
MCF7 = system: MCF7
786-0 = system: 786-0
SF-539 = system: SF-539
SK-OV-3 = system: SK-OV-3
SF-295 = system: SF-295
SK-MEL-28 = system: SK-MEL-28
MDA-MB-231 = system: MDA-MB-231
COLO 205 = system: COLO 205
UACC-62 = system: UACC-62
RPMI-8226 = system: RPMI-8226
HCC 2998 = system: HCC 2998

Row | SMILES | GI50 (UACC-257) | GI50 (NCI-H460) | GI50 (SK-MEL-2) | GI50 (SR) | GI50 (OVCAR-8) | GI50 (MDA-MB-435) | GI50 (MDA-N) | GI50 (M14) | GI50 (CCRF-CEM) | GI50 (MCF7) | GI50 (786-0) | GI50 (SF-539) | GI50 (SK-OV-3) | GI50 (SF-295) | GI50 (SK-MEL-28) | GI50 (MDA-MB-231) | GI50 (COLO 205) | GI50 (UACC-62) | GI50 (RPMI-8226) | GI50 (HCC 2998)
1 | CC(=O)Nc1ccc2c(c1)nc1c3ccccc3ccn21 | > 100 µM (inactive) | > 100 µM (inactive) | > 100 µM (inactive) | > 100 µM (inactive) | > 100 µM (inactive) | > 100 µM (inactive) | > 100 µM (inactive) | > 100 µM (inactive) | 27.8 µM (inactive) | > 100 µM (inactive) | > 100 µM (inactive) | > 100 µM (inactive) | > 100 µM (inactive) | 85.9 µM (inactive) | > 100 µM (inactive) | > 100 µM (inactive) | > 100 µM (inactive) | > 100 µM (inactive) | – | –
2 | N#CC1=C(Nc2ccccc2)SC=C(c2ccccc2)N=C1NCc1ccccc1 | – | – | > 100 µM (inactive) | 0.984 µM (active) | > 100 µM (inactive) | > 100 µM (inactive) | > 100 µM (inactive) | > 100 µM (inactive) | – | > 100 µM (inactive) | > 100 µM (inactive) | > 100 µM (inactive) | > 100 µM (inactive) | – | > 100 µM (inactive) | > 100 µM (inactive) | 65.5 µM (inactive) | > 100 µM (inactive) | 18.7 µM (inactive) | –
3 | Nc1nc(N)c2ncn(Cc3c(Cl)cccc3Cl)c2n1 | > 100 µM (inactive) | – | > 100 µM (inactive) | – | > 100 µM (inactive) | > 100 µM (inactive) | > 100 µM (inactive) | > 100 µM (inactive) | > 100 µM (inactive) | > 100 µM (inactive) | > 100 µM (inactive) | > 100 µM (inactive) | > 100 µM (inactive) | > 100 µM (inactive) | > 100 µM (inactive) | > 100 µM (inactive) | > 100 µM (inactive) | > 100 µM (inactive) | > 100 µM (inactive) | > 100 µM (inactive)
4 | CC1=CC(=O)/C(=C/NC(=S)c2ccccc2)C(=O)O1 | > 100 µM (inactive) | > 100 µM (inactive) | > 100 µM (inactive) | – | > 100 µM (inactive) | > 100 µM (inactive) | > 100 µM (inactive) | > 100 µM (inactive) | – | > 100 µM (inactive) | > 100 µM (inactive) | > 100 µM (inactive) | > 100 µM (inactive) | > 100 µM (inactive) | > 100 µM (inactive) | > 100 µM (inactive) | > 100 µM (inactive) | > 100 µM (inactive) | – | > 100 µM (inactive)
5 | CO/C(N)=C(C#N)/N=C/c1cccs1 | 32.5 µM (inactive) | > 100 µM (inactive) | > 100 µM (inactive) | – | > 100 µM (inactive) | 25.8 µM (inactive) | 27.4 µM (inactive) | 41.2 µM (inactive) | 66.4 µM (inactive) | 24.4 µM (inactive) | > 100 µM (inactive) | 92.7 µM (inactive) | > 100 µM (inactive) | > 100 µM (inactive) | 45.4 µM (inactive) | > 100 µM (inactive) | 36.6 µM (inactive) | 35.5 µM (inactive) | – | > 100 µM (inactive)
6 | CC(C)(C)OC(=O)N1C(=O)OC[C@@H]2C=C[C@@H]21 | > 100 µM (inactive) | > 100 µM (inactive) | > 100 µM (inactive) | – | > 100 µM (inactive) | > 100 µM (inactive) | > 100 µM (inactive) | > 100 µM (inactive) | > 100 µM (inactive) | > 100 µM (inactive) | > 100 µM (inactive) | > 100 µM (inactive) | > 100 µM (inactive) | > 100 µM (inactive) | > 100 µM (inactive) | > 100 µM (inactive) | > 100 µM (inactive) | > 100 µM (inactive) | > 100 µM (inactive) | –
7 | C1CSCCSCCSCCSCCS1 | > 100 µM (inactive) | > 100 µM (inactive) | > 100 µM (inactive) | – | > 100 µM (inactive) | > 100 µM (inactive) | > 100 µM (inactive) | > 100 µM (inactive) | – | > 100 µM (inactive) | > 100 µM (inactive) | > 100 µM (inactive) | > 100 µM (inactive) | > 100 µM (inactive) | > 100 µM (inactive) | > 100 µM (inactive) | > 100 µM (inactive) | > 100 µM (inactive) | > 100 µM (inactive) | > 100 µM (inactive)
8 | C[C@]12CC[C@@H]3c4ccc(O)cc4CC[C@H]3[C@@H]1C/C(=C\c1ccncc1)[C@@H]2O | 14.5 µM (inactive) | 6.32 µM (inactive) | 11.4 µM (inactive) | – | 11.4 µM (inactive) | 2.92 µM (inactive) | 3.99 µM (inactive) | 20.6 µM (inactive) | 9.75 µM (inactive) | 10.1 µM (inactive) | 14.3 µM (inactive) | – | 26.2 µM (inactive) | 4.29 µM (inactive) | 22.3 µM (inactive) | 10.1 µM (inactive) | 5.18 µM (inactive) | 10.8 µM (inactive) | 3.13 µM (inactive) | 7.96 µM (inactive)
9 | C=CCN1C(=O)C=C(c2ccccc2)n2ncc3cccc1c32 | > 100 µM (inactive) | – | > 100 µM (inactive) | > 100 µM (inactive) | > 100 µM (inactive) | 1.46 µM (inactive) | > 100 µM (inactive) | > 100 µM (inactive) | 67.9 µM (inactive) | > 100 µM (inactive) | > 100 µM (inactive) | > 100 µM (inactive) | > 100 µM (inactive) | > 100 µM (inactive) | > 100 µM (inactive) | > 100 µM (inactive) | > 100 µM (inactive) | > 100 µM (inactive) | 97.7 µM (inactive) | –
10 | CN1CCN(CCCBr)CC1 | > 100 µM (inactive) | > 100 µM (inactive) | > 100 µM (inactive) | – | > 100 µM (inactive) | > 100 µM (inactive) | > 100 µM (inactive) | > 100 µM (inactive) | > 100 µM (inactive) | > 100 µM (inactive) | > 100 µM (inactive) | > 100 µM (inactive) | > 100 µM (inactive) | > 100 µM (inactive) | > 100 µM (inactive) | > 100 µM (inactive) | > 100 µM (inactive) | > 100 µM (inactive) | > 100 µM (inactive) | –
11 | Nc1ncnc2c1ccn2C/C=C\CO | > 100 µM (inactive) | > 100 µM (inactive) | > 100 µM (inactive) | – | > 100 µM (inactive) | > 100 µM (inactive) | > 100 µM (inactive) | > 100 µM (inactive) | > 100 µM (inactive) | > 100 µM (inactive) | > 100 µM (inactive) | > 100 µM (inactive) | > 100 µM (inactive) | > 100 µM (inactive) | > 100 µM (inactive) | > 100 µM (inactive) | > 100 µM (inactive) | > 100 µM (inactive) | > 100 µM (inactive) | > 100 µM (inactive)
12 | Cc1c(C)c(C)c(Cn2[nH]c(=O)n(C)c2=O)c(C)c1C | > 100 µM (inactive) | > 100 µM (inactive) | > 100 µM (inactive) | – | > 100 µM (inactive) | > 100 µM (inactive) | > 100 µM (inactive) | > 100 µM (inactive) | > 100 µM (inactive) | > 100 µM (inactive) | > 100 µM (inactive) | > 100 µM (inactive) | > 100 µM (inactive) | > 100 µM (inactive) | > 100 µM (inactive) | > 100 µM (inactive) | > 100 µM (inactive) | > 100 µM (inactive) | > 100 µM (inactive) | > 100 µM (inactive)
13 | Clc1ccc(OCc2nn3c(CCc4nnc5sc(COc6ccc(Cl)cc6)nn45)nnc3s2)cc1 | 22.9 µM (inactive) | 18.4 µM (inactive) | 25.7 µM (inactive) | – | 14.5 µM (inactive) | 24.9 µM (inactive) | 30.3 µM (inactive) | 33.7 µM (inactive) | 29.1 µM (inactive) | 21.4 µM (inactive) | 26.4 µM (inactive) | 27.9 µM (inactive) | 28.8 µM (inactive) | 24.5 µM (inactive) | 33.9 µM (inactive) | 19.8 µM (inactive) | – | – | 17.3 µM (inactive) | –
14 | N#Cc1c(Cl)c2cc([N+](=O)[O-])ccc2n2c1nc1ccccc12 | 20.6 µM (inactive) | 14.6 µM (inactive) | 15.5 µM (inactive) | – | 3.21 µM (inactive) | 2.35 µM (inactive) | 7.19 µM (inactive) | 1.99 µM (inactive) | 0.57 µM (active) | 1.17 µM (inactive) | 2.01 µM (inactive) | 2.15 µM (inactive) | 23.3 µM (inactive) | 26.8 µM (inactive) | 6.87 µM (inactive) | 0.492 µM (active) | 2.21 µM (inactive) | 12 µM (inactive) | 3.94 µM (inactive) | 7.53 µM (inactive)
15 | CCSc1cc(=O)n(C)c(=O)n1C | > 100 µM (inactive) | > 100 µM (inactive) | > 100 µM (inactive) | – | > 100 µM (inactive) | > 100 µM (inactive) | > 100 µM (inactive) | > 100 µM (inactive) | > 100 µM (inactive) | > 100 µM (inactive) | > 100 µM (inactive) | > 100 µM (inactive) | > 100 µM (inactive) | > 100 µM (inactive) | > 100 µM (inactive) | > 100 µM (inactive) | > 100 µM (inactive) | > 100 µM (inactive) | > 100 µM (inactive) | > 100 µM (inactive)
